Holding throughout (experiment): microbe, parasite or virus in culture
Common to all, as to format: cell-based

For one assay, the system named is Yersinia pestis. The settings on record: for MIC: read-out: MIC range.
The next assay deals with Bacillus anthracis. Particulars: for MIC: read-out: MIC range.
Assay [1] concerns Burkholderia pseudomallei. Particulars: Burkholderia pseudomallei; for MIC: read-out: MIC range.
In the next assay the test system is Burkholderia mallei. The settings on record: for MIC: read-out: MIC range.
The test system of another assay is Francisella tularensis. The settings on record: for MIC: read-out: MIC range.

Here are results for eight compounds from patent US12152031B2, “Biodefense agents” (priority 2018, dated 2024).

Values after ≈ are worked out from the molar mass of the structure shown.

`CCCN1[C@H](CCNC(C)=N)CCC[C@H]1c1ccc(-n2cc3cc(-c4cc(CCC[C@H](C)N)cc(Cl)c4F)[nH]c3nc2=O)cc1` [RX-D5]: the MIC50 with Yersinia pestis is 0.12 µg/mL (≈ 0.189 µM); in the assay with Bacillus anthracis, 0.06 µg/mL (≈ 0.0946 µM); in assay [1], 4 µg/mL (≈ 6.31 µM); with Burkholderia mallei, 0.06 µg/mL (≈ 0.0946 µM); in the assay with Francisella tularensis, 0.06 µg/mL (≈ 0.0946 µM). Further, the MIC90 was 0.25 µg/mL (≈ 0.394 µM) in the assay with Yersinia pestis; 0.06 µg/mL (≈ 0.0946 µM) in the assay with Bacillus anthracis; 8 µg/mL (≈ 12.6 µM) in assay [1]; 0.12 µg/mL (≈ 0.189 µM) in the assay on Burkholderia mallei; 0.12 µg/mL (≈ 0.189 µM) against Francisella tularensis. The MIC in the assay with Yersinia pestis was 0.03 to 0.5 µg/mL (≈ 0.0473 to 0.788 µM); in the assay with Bacillus anthracis it was 0.015 to 0.12 µg/mL (≈ 0.0237 to 0.189 µM); in the assay with Burkholderia mallei, 0.03 to 0.12 µg/mL (≈ 0.0473 to 0.189 µM); in the assay with Francisella tularensis, 0.004 to 1 µg/mL (≈ 0.00631 to 1.58 µM).
For `C[C@H](N)CCCc1cc(Cl)c(F)c(-c2cc3cn(-c4ccc([C@@H]5CCC[C@@H](CCNC(=N)CN)N5)cc4)c(=O)nc3[nH]2)c1` [RX-D6], the MIC50 in the assay with Yersinia pestis is 0.5 µg/mL (≈ 0.823 µM); against Bacillus anthracis, 0.12 µg/mL (≈ 0.198 µM); in assay [1], > 8 µg/mL; against Burkholderia mallei it was 0.12 µg/mL (≈ 0.198 µM); against Francisella tularensis, 0.06 µg/mL (≈ 0.0988 µM). Further, the MIC90 with Yersinia pestis is 1 µg/mL (≈ 1.65 µM); against Bacillus anthracis it was 0.25 µg/mL (≈ 0.412 µM); in assay [1], > 8 µg/mL; in the assay with Burkholderia mallei, 0.25 µg/mL (≈ 0.412 µM); in the assay on Francisella tularensis, 0.25 µg/mL (≈ 0.412 µM). For the same compound, the MIC with Yersinia pestis lay within 0.015 to 1 µg/mL (≈ 0.0247 to 1.65 µM); with Bacillus anthracis, 0.06 to 0.25 µg/mL (≈ 0.0988 to 0.412 µM); with Burkholderia mallei it was 0.12 to 0.25 µg/mL (≈ 0.198 to 0.412 µM); in the assay on Francisella tularensis, 0.03 to 0.5 µg/mL (≈ 0.0494 to 0.823 µM).
On to `C=C[C@H](N)CCCc1cc(Cl)c(F)c(-c2cc3cn(-c4ccc([C@@H]5CCC[C@@H](CCNC(C)=N)N5)c(SC)c4)c(=O)nc3[nH]2)c1` [RX-D7], for which the MIC50 is 0.25 µg/mL (≈ 0.384 µM) against Yersinia pestis; ≤ 0.008 µg/mL in the assay with Bacillus anthracis; 4 µg/mL (≈ 6.15 µM) in assay [1]; 0.25 µg/mL (≈ 0.384 µM) against Burkholderia mallei; 0.12 µg/mL (≈ 0.185 µM) against Francisella tularensis. Moreover, the MIC90 came to 0.5 µg/mL (≈ 0.769 µM) in the assay with Yersinia pestis; 0.03 µg/mL (≈ 0.0461 µM) against Bacillus anthracis; 8 µg/mL (≈ 12.3 µM) in assay [1]; 0.25 µg/mL (≈ 0.384 µM) in the assay on Burkholderia mallei; 0.25 µg/mL (≈ 0.384 µM) with Francisella tularensis. Besides, the MIC is 0.03 to 1 µg/mL (≈ 0.0461 to 1.54 µM) in the assay with Yersinia pestis, 0.008 to 0.06 µg/mL (≈ 0.0123 to 0.0923 µM) in the assay with Bacillus anthracis, 0.06 to 0.5 µg/mL (≈ 0.0923 to 0.769 µM) with Burkholderia mallei and 0.06 to 0.5 µg/mL (≈ 0.0923 to 0.769 µM) with Francisella tularensis.
On to `CC(=N)NCC[C@@H]1CCC[C@@H](c2ccc(-n3cc4cc(-c5cc(CCC[C@H](C)N)cc(Cl)c5F)[nH]c4nc3=O)cc2C)N1` [RX-D8], for which the MIC50 in the assay on Yersinia pestis was 0.25 µg/mL (≈ 0.412 µM); against Bacillus anthracis, ≤ 0.008 µg/mL; in assay [1] it was 8 µg/mL (≈ 13.2 µM); against Burkholderia mallei it was 0.06 µg/mL (≈ 0.099 µM); with Francisella tularensis, 0.03 µg/mL (≈ 0.0495 µM). Also, the MIC90 in the assay on Yersinia pestis was 0.5 µg/mL (≈ 0.825 µM); against Bacillus anthracis, ≤ 0.008 µg/mL; in assay [1], > 8 µg/mL; in the assay on Burkholderia mallei it was 0.12 µg/mL (≈ 0.198 µM); in the assay on Francisella tularensis, 0.06 µg/mL (≈ 0.099 µM). Moreover, the MIC in the assay with Yersinia pestis was in the range of 0.06 to 0.5 µg/mL (≈ 0.099 to 0.825 µM); with Bacillus anthracis it was 0.008 to 0.015 µg/mL (≈ 0.0132 to 0.0247 µM); in the assay on Burkholderia mallei, 0.03 to 0.25 µg/mL (≈ 0.0495 to 0.412 µM); in the assay with Francisella tularensis, 0.004 to 0.12 µg/mL (≈ 0.0066 to 0.198 µM).
Turning to `CC(=N)NCC[C@@H]1CSC[C@@H](c2ccc(-n3cc4cc(-c5cc(CCC[C@H](C)N)cc(Cl)c5F)[nH]c4nc3=O)cc2)N1` [RX-D9], the MIC50 was 0.12 µg/mL (≈ 0.197 µM) with Yersinia pestis; 0.06 µg/mL (≈ 0.0983 µM) against Bacillus anthracis; 2 µg/mL (≈ 3.28 µM) in assay [1]; 0.12 µg/mL (≈ 0.197 µM) with Burkholderia mallei; 0.12 µg/mL (≈ 0.197 µM) in the assay with Francisella tularensis. Also, the MIC90 came to 0.25 µg/mL (≈ 0.41 µM) in the assay with Yersinia pestis; 0.12 µg/mL (≈ 0.197 µM) against Bacillus anthracis; 4 µg/mL (≈ 6.56 µM) in assay [1]; 0.25 µg/mL (≈ 0.41 µM) in the assay with Burkholderia mallei; 0.25 µg/mL (≈ 0.41 µM) against Francisella tularensis. Besides, the MIC in the assay with Yersinia pestis lay in the range of 0.06 to 0.5 µg/mL (≈ 0.0983 to 0.819 µM); in the assay with Bacillus anthracis, 0.008 to 0.12 µg/mL (≈ 0.0131 to 0.197 µM); in assay [1], 0.5 to 4 µg/mL (≈ 0.819 to 6.56 µM); in the assay on Burkholderia mallei, 0.03 to 0.5 µg/mL (≈ 0.0492 to 0.819 µM); in the assay with Francisella tularensis, 0.03 to 2 µg/mL (≈ 0.0492 to 3.28 µM).
Turning to `C=CCN1[C@H](CCNC(C)=N)CCC[C@H]1c1ccc(-n2cc3cc(-c4cc(CCC[C@H](C)N)cc(Cl)c4F)[nH]c3nc2=O)cc1` [RX-D10], the MIC50 with Yersinia pestis came to 0.12 µg/mL (≈ 0.19 µM); against Bacillus anthracis it was 0.12 µg/mL (≈ 0.19 µM); in assay [1] it was 2 µg/mL (≈ 3.16 µM); against Burkholderia mallei it was 0.12 µg/mL (≈ 0.19 µM); with Francisella tularensis, 0.12 µg/mL (≈ 0.19 µM). For the same compound, the MIC90 is 0.5 µg/mL (≈ 0.791 µM) against Yersinia pestis; 0.25 µg/mL (≈ 0.395 µM) with Bacillus anthracis; 4 µg/mL (≈ 6.33 µM) in assay [1]; 0.25 µg/mL (≈ 0.395 µM) against Burkholderia mallei; 0.5 µg/mL (≈ 0.791 µM) against Francisella tularensis. In addition, the MIC is 0.03 to 0.5 µg/mL (≈ 0.0475 to 0.791 µM) in the assay on Yersinia pestis; 0.008 to 0.25 µg/mL (≈ 0.0127 to 0.395 µM) in the assay with Bacillus anthracis; 0.25 to 8 µg/mL (≈ 0.395 to 12.7 µM) in assay [1]; 0.06 to 0.25 µg/mL (≈ 0.0949 to 0.395 µM) in the assay with Burkholderia mallei; 0.03 to 2 µg/mL (≈ 0.0475 to 3.16 µM) in the assay with Francisella tularensis.
Take `C[C@H](N)CCCc1cc(Cl)c(F)c(-c2cc3cn(-c4ccc([C@@H]5CCC[C@@H](CCSC(=N)N)N5)c(F)c4)c(=O)nc3[nH]2)c1` [RX-D11]: the MIC50 against Yersinia pestis turned out to be 0.12 µg/mL (≈ 0.191 µM); in the assay with Bacillus anthracis, 0.12 µg/mL (≈ 0.191 µM); in assay [1] it was 1 µg/mL (≈ 1.59 µM); with Burkholderia mallei it was 0.06 µg/mL (≈ 0.0955 µM); against Francisella tularensis, 0.06 µg/mL (≈ 0.0955 µM). For the same compound, the MIC90 is 0.25 µg/mL (≈ 0.398 µM) against Yersinia pestis; 0.25 µg/mL (≈ 0.398 µM) with Bacillus anthracis; 2 µg/mL (≈ 3.18 µM) in assay [1]; 0.12 µg/mL (≈ 0.191 µM) against Burkholderia mallei; 0.12 µg/mL (≈ 0.191 µM) with Francisella tularensis. Moreover, the MIC in the assay with Yersinia pestis was 0.004 to 0.25 µg/mL (≈ 0.00637 to 0.398 µM); in the assay with Bacillus anthracis, 0.008 to 0.5 µg/mL (≈ 0.0127 to 0.796 µM); in assay [1] it was 0.25 to 8 µg/mL (≈ 0.398 to 12.7 µM); with Burkholderia mallei, 0.03 to 0.25 µg/mL (≈ 0.0478 to 0.398 µM); with Francisella tularensis, 0.008 to 1 µg/mL (≈ 0.0127 to 1.59 µM).
On to `C[C@H](N)CCCc1cc(Cl)c(F)c(-c2cc3cn(-c4ccc([C@H]5CC[C@H](CCNC(=N)N)N5)cc4)c(=O)nc3[nH]2)c1` [RX-D13], for which the MIC50 in the assay on Yersinia pestis came out at 0.06 µg/mL (≈ 0.104 µM); in the assay on Bacillus anthracis, 0.06 µg/mL (≈ 0.104 µM); in assay [1], 1 µg/mL (≈ 1.73 µM); against Burkholderia mallei, 0.06 µg/mL (≈ 0.104 µM); against Francisella tularensis, 0.015 µg/mL (≈ 0.0259 µM). For the same compound, the MIC90 stood at 0.25 µg/mL (≈ 0.432 µM) in the assay with Yersinia pestis; 0.06 µg/mL (≈ 0.104 µM) against Bacillus anthracis; 4 µg/mL (≈ 6.91 µM) in assay [1]; 0.12 µg/mL (≈ 0.207 µM) in the assay with Burkholderia mallei; 0.06 µg/mL (≈ 0.104 µM) with Francisella tularensis. In addition, the MIC in the assay with Yersinia pestis was 0.03 to 0.25 µg/mL (≈ 0.0518 to 0.432 µM); in the assay with Bacillus anthracis, 0.008 to 0.12 µg/mL (≈ 0.0138 to 0.207 µM); in assay [1] it was 0.25 to 8 µg/mL (≈ 0.432 to 13.8 µM); in the assay on Burkholderia mallei it was 0.008 to 0.12 µg/mL (≈ 0.0138 to 0.207 µM); in the assay on Francisella tularensis, 0.004 to 0.12 µg/mL (≈ 0.00691 to 0.207 µM).
